Legend:
Format in all cases: biochemical
hGWL-KinDom [1] = biological target: T1, hGWL-KinDom (Homo sapiens, UniProt Q96GX5); assay: Kinase-Glo Max luminescence kinase assay with hGWL-KinDom; details: for Km / kcat: substrate of hGWL-KinDom, Kinase-Glo Max
T1 construct: that encoded amino acids (aa) 1-194 + ‘RTFC’ + 740-879 of hGWL; GST (rhinovirus 3C-protease cleavable) (N, cleaved yes); made in house; host or cells: E. coli Rosetta2(DE3)
Description: Non-radioactive kinase assays were set-up by combining hGWL-KinDom (305 µM in 20 mM HEPES pH 7.5, FL 500 mM NaCl, and 0.5 mM TCEP) diluted to desired concentration or immunoprecipitated hGWL on beads with ultra-pure ATP [Promega, 25 µM] and His-tagged substrate  α-endosulfine (ENSA, 2 µM) in kinase assay buffer (50 mM Tris-HCl pH 7.5, 0.5 mM EGTA, 150 mM NaCl, 0.1% v/v NP-40 and 15 mM MgCl2). The reaction was allowed to proceed for 30 min at 37 °C or another indicated time-point after which it was stopped with either SDS loading buffer (5X buffer, including 0.25 % w/v Bromophenol blue, 0.5 M DTT (dithiothreitol), 50% v/v Glycerol, 10% v/v SDS (sodium dodecyl sulphate), and 0.25M Tris-HCl pH 6.8) or Kinase-Glo Max reagent [Promega]. Recombinant His-tagged ENSA was purified using Ni-NTA agarose [QIAGEN] from BL21 E. coli following the manufacturer’s recommended protocol. […]
(§1) All kinase assays were repeated thrice per assay condition and each point on the concentration-dependent response curves represents the mean ± […]
After stopping the above non-radioactive kinase assay with 1 volume of Kinase-Glo Max reagent the mixture was allowed to incubate for a further 15 min. To detect consumption of ATP, samples were transferred to white, flat-bottom 96-well plates [Thermo Fisher Scientific, Loughborough, UK] and luminescence was detected using a POLARstar Omega micro-plate reader [BMG Labtech GmbH, Ortenberg, Germany]. As this assay measures ATP, activity or ATP turnover was measured as the -ΔRLU. […]

hGWL^FL = biological target: T2, hGWL^FL (Homo sapiens, UniProt Q96GX5); assay: Immunoprecipitation kinase assay with Flag-tagged hGWL^FL (p-ENSA western); details: for IC50: immunoprecipitated Flag-tagged hGWL^FL, read-out: IC50 GWL^FL; for inhibition of hGWL^FL (result in words): immunoprecipitation kinase assay
T2 construct: N-terminally FLAG-tagged full-length human GWL; made in house; host or cells: HEK293T cells, transfected and nocodazole-arrested; protein captured on anti-Flag M2 beads
T2 sequence (Q96GX5 1-879): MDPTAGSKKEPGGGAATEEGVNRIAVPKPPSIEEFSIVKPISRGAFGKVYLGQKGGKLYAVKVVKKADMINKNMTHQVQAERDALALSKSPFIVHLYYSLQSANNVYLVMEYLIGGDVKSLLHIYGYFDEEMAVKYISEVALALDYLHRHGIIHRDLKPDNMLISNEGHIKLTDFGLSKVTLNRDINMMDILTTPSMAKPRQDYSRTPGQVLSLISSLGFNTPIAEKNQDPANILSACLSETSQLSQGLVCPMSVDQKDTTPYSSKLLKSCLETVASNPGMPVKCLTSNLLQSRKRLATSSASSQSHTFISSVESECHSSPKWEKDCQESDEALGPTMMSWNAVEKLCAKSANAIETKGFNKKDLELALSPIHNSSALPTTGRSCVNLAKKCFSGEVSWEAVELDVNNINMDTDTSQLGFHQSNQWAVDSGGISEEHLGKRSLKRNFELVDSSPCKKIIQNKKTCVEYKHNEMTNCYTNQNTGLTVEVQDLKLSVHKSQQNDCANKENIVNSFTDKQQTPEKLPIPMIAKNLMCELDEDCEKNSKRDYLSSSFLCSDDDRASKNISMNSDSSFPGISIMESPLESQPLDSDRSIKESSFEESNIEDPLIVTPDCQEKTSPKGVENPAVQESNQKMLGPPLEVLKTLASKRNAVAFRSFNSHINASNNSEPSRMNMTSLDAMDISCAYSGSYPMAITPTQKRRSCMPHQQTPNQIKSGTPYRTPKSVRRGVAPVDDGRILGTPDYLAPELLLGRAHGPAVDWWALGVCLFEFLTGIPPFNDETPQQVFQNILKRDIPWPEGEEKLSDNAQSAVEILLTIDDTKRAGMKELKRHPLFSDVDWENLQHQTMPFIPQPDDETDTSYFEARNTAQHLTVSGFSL
Description: 500 mM NaCl, and 0.5 mM TCEP) diluted to desired concentration or immunoprecipitated hGWL on beads with ultra-pure ATP [Promega, 25 µM] and His-tagged substrate  α-endosulfine (ENSA, 2 µM) in kinase assay buffer (50 mM Tris-HCl pH 7.5, 0.5 mM EGTA, 150 mM NaCl, 0.1% v/v NP-40 and 15 mM MgCl2). The […]
(dithiothreitol), 50% v/v Glycerol, 10% v/v SDS (sodium dodecyl sulphate), and 0.25M Tris-HCl pH 6.8) or Kinase-Glo Max reagent [Promega]. Recombinant His-tagged ENSA was purified using Ni-NTA agarose [QIAGEN] from BL21 E. coli following the manufacturer’s recommended protocol. […]
as §1
Immunoprecipitation Kinase Assay
HEK293T cells were transfected with 10 µg of plasmid (Flag-tagged hGWLFL or GFP; pcDNA3-EGFP, Addgene, Cambridge MA, USA) using CaCl2. […]
incubated for a further 16–18 h. Cells were collected and washed in PBS-A followed by lysis on ice for 20 min in 1mL IP buffer (50 mM Tris-HCl pH 7.5, 150 mM NaCl, 10% v/v glycerol, 0.5% v/v NP-40, 1 mM EDTA supplemented with protease and phosphatase inhibitors (Complete and PhosStop; Roche Diagnostics)). Samples were then sonicated and clarified by centrifugation at 13,000 rpm for 30 min at 4°C. To capture Flag-tagged […]
hGWLFL, 100 µl of lysate was diluted 5-fold with IP buffer and combined with 3 µl anti-Flag M2 magnetic Dynabeads [Sigma-Aldrich] overnight at 4 °C. After sequential washes with IP buffer, 1:1 mix of IP and kinase assay buffers and a final wash in kinase assay buffer, the beads were then used in the kinase assay. The reaction was stopped by adding SDS loading buffer and analysed by western blot: p-ENSA and GWL levels were detected using the anti-phospho(Ser67)-ENSA and anti-MASTL(GWL, Prestige) antibodies. Activity was measured as the p-ENSA/GWL ratio and % kinase activity was normalised to the DMSO control. All kinases assays were repeated thrice per assay condition and each point on the concentration-dependent response curves represents the mean ± 1 S.D. […]

PKA = biological target: T3, PKA (Homo sapiens, UniProt P17612); assay: PKA kinase assay (Promega)
T3 construct: purchased Promega
Description: (§2) hGWLFL, 100 µl of lysate was diluted 5-fold with IP buffer and combined with 3 µl anti-Flag M2 magnetic Dynabeads [Sigma-Aldrich] overnight at 4 °C. After sequential washes with IP buffer, 1:1 mix of IP and kinase assay buffers and a final wash in kinase assay buffer, the beads were then used in the kinase assay. The reaction was stopped by adding SDS loading buffer and analysed by western blot: p-ENSA and GWL levels were detected using the anti-phospho(Ser67)-ENSA and anti-MASTL(GWL, Prestige) antibodies. Activity was measured as the p-ENSA/GWL ratio and % kinase activity was normalised to the DMSO control. All kinases assays were repeated thrice per assay condition and each point on the concentration-dependent response curves represents the mean ± 1 S.D.
(§3) PKA, ROCK1 and CDK2 kinase assays […]
(§4) Data were normalised against the AllStars negative control siRNA treated cells and values obtained from 3 – 5 biological replicates were reported as the mean ± 1 S.D.

ROCK1 = biological target: T4, ROCK1 (Homo sapiens, UniProt Q13464); assay: ROCK1 kinase assay (Promega)
T4 construct: purchased Promega
T4 sequence (Q13464 whole entry): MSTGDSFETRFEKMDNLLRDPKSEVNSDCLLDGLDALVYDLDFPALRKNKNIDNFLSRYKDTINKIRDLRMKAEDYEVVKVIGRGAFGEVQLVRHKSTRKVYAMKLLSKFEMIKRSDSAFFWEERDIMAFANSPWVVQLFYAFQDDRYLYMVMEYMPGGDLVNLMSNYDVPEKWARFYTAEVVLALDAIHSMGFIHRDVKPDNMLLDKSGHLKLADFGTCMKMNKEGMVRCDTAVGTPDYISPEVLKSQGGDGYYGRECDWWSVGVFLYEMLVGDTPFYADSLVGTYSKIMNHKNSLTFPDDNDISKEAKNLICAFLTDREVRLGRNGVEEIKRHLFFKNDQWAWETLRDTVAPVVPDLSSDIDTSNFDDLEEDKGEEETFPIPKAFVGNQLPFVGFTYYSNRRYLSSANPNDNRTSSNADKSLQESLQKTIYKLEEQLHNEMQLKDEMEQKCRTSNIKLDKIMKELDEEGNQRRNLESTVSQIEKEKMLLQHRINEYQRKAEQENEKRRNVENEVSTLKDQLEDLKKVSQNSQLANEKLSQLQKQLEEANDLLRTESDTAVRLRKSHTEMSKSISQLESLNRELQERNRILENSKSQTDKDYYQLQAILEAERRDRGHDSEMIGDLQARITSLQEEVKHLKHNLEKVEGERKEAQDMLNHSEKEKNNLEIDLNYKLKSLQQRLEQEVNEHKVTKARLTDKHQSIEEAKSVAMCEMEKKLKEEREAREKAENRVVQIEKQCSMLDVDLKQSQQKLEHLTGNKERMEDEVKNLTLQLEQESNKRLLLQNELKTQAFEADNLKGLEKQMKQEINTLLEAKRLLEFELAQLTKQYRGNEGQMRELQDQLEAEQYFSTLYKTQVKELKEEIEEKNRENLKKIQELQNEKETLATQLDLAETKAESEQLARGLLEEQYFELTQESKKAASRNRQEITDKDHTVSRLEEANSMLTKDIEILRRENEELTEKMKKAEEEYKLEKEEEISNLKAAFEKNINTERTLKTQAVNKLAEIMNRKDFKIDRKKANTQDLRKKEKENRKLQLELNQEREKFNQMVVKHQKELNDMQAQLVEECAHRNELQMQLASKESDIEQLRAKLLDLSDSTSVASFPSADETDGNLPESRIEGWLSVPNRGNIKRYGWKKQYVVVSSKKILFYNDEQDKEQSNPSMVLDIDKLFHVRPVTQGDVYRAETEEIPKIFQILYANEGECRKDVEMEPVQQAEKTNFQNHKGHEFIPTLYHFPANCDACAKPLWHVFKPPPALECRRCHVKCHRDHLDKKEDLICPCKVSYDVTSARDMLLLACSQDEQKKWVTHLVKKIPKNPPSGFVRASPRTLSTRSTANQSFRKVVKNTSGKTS
Description: as §2, §3, §4

hGWL-KinDom [2] = biological target: T1, hGWL-KinDom; assay: Inhibitor screen of pooled library with hGWL-KinDom (Kinase-Glo Max); details: for inhibition at 10 µM: 10 μM screening concentration, ATP concentration = 45 μM; for Rank in inhibitor screen: rank by potency in the screen
Description: Two small-molecule compound libraries, enriched with pharmacophores known to interact with the ATP-binding site of protein kinases, were screened as a pooled library in a Kinase-GloMax luminescence-kinase assay. page 4: […] Dynabeads [Sigma-Aldrich] overnight at 4 °C. After sequential washes with IP buffer, 1:1 mix of IP and kinase assay buffers and a final wash in kinase assay buffer, the beads were then used in the kinase assay. The reaction was stopped by adding SDS loading buffer and analysed by western blot: p-ENSA and GWL levels were detected using the anti-phospho([…] and […], Prestige) antibodies. Activity was measured as the […] ratio and % kinase activity was normalised to the DMSO control. All kinases assays were repeated thrice per assay condition and each point on the concentration-dependent response curves represents the mean ± 1 S.D. PKA, ROCK1 and CDK2 kinase assays PKA and ROCK1 assays (Promega) were carried out according to the manufacturer's protocols and CDK2 assays were carried out with Histone H1 as substrate (1 µg per 20 µl reaction) according to our Kinase-Glo Max assay. CDK2 was expressed and purified from E. coli as previously described (10). Inhibitor Screens with hGWL-KinDom Two small-molecule compound libraries, enriched with pharmacophores known to interact with the ATP- binding site of protein kinases, were kindly provided by GlaxoSmithKline and Roche. We used this pooled library (582 compounds, 10 µM screening concentrations) in a Kinase-Glo Max luminescence kinase assay (11, 12) as part of a two-point screen against hGWL-KinDom kinase activity, using ATP at fixed concentrations of […] With STU as positive control at a […] 4A,B). […] rate = 5.8%; Supplementary Figure 4A). Molecular Docking - AutoDock AT13148 and GKI-1/2 were docked into the ATP-binding site of the hGWL-KinDom crystal structure (where the disordered C-helix was homology-modelled) using AutoDock 4.2.6. PDB format files for the ligand and kinase domain were pre-processed using AutoDock Tools 1.5.6 as described in Mohamed, et al. (13). (Figure 4 and Supplementary Figure 6A,B). Immunofluorescence and Time-lapse video microscopy 2.5 X 105 HeLa cells were plated onto glass coverslips in a 6-well plate, or 4-well µ-slides [Ibidi GmbH] were seeded with 5 X 104 cells and then transfected with Qiagen AllStars negative control or Hs_MASTL_6 siRNAs (14) using Lipofectamine RNAiMax [ThermoFisher Scientific]. Media was exchanged with fresh media the next day. 48 hours after siRNA treatment, only cells to be used for immunofluorescence (IF) were treated with nocodazole (200 ng/mL) and DMSO or GKI-1 at the indicated concentration. For IF, cells were fixed, stained with primary mouse anti-GWL and rabbit anti-p-ENSA antibodies, secondary Alexa Fluor 647-conjugated anti- rabbit and Alexa Fluor 488-conjugated anti-mouse antibodies, DAPI and mounted onto glass microscope slides using Diamond Antifade Mountant [Molecular Probes, ThermoFisher Scientific]. Quantitation of IF images was performed using the […]-Content Screening Station [Olympus Life Science] which acquired 220, 40x images per cover slip. Data were normalised against the AllStars negative control siRNA treated cells and values obtained from three biological replicates were reported as the mean ± 1 S.D. To assist with selecting mitotic cells, ScanR imaging software was utilised to gate for mitotic cells using the circularity factor and total DAPI parameters. To produce time-lapse videos, after 48 hours and cell treatment with DMSO or compound (cells were treated with GKI-1 for 4-h before image acquisition) cells plated in 4-well µ-slides were imaged every 5 minutes for 8.5 hours on an Olympus IX73 microscope, using a 40 x 0.95NA air objective, and recorded on an Orca-Flash 4.0 CMOS camera [Hamatsu]. The computer program Fiji (http://www.fiji.sc/Fiji) was used to generate videos from image sequence TIF files. Data were normalised against the AllStars negative control siRNA treated cells and […]

T1 sequence (Q96GX5 with tags, fused parts or gaps limits assumed): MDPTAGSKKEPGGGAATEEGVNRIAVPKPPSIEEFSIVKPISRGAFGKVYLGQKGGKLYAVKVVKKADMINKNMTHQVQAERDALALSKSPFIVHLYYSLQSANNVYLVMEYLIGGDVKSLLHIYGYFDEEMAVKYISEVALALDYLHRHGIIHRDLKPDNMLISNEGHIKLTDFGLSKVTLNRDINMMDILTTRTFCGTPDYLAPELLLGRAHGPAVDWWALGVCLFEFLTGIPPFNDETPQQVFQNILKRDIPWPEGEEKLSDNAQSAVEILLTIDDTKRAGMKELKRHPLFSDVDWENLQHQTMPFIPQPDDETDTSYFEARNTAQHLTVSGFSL

Row | IC50 (hGWL^FL) [nM] | inhibition of hGWL^FL (result in words) (hGWL^FL) | inhibition at 10 µM (hGWL-KinDom [2]) [%] | Rank in inhibitor screen (hGWL-KinDom [2]) | Molecule | Km (hGWL-KinDom [1]) [µM] | kcat (hGWL-KinDom [1]) [s⁻¹] | also measured
1 | 5900 |  |  |  | NC[C@@](O)(c1ccc(Cl)cc1)c1ccc(-c2cn[nH]c2)cc1 [AT13148, reference compound] |  |  | IC50 (hGWL-KinDom [1]; Kinase-Glo Max assay, read-out: IC50 GWL-KinDom): 125 ± 1.7 nM; inhibitory ratio (IC50 GWL^FL/IC50 GWL-KinDom) (hGWL^FL; for GKI-1: EC50 hGWL^FL vs IC50 hGWL-KinDom): 45; AT13148 IC50/STU IC50 (hGWL^FL; hGWL^FL inhibition): ~ 2; IC50 (PKA; refers to Table 2): ~11 nM; IC50 (PKA; ± S.D.): 6.13 ± 2 nM; IC50 (ROCK1; refers to Table 2): ~6 nM; IC50 (ROCK1; ± S.D.): 11.4 ± 4 nM
2 | > 100000 | did not demonstrably inhibit | 67.6 | 1 | COc1cc[nH]c1/C=C1\C(=O)Nc2ccc(F)c(C#CC3(O)CCNCC3)c21 [GRI-1] |  |  | 
3 | > 100000 | did not demonstrably inhibit | 37 | 5 | CNC(C#Cc1c(F)ccc2c1C(=Cc1[nH]ccc1OC)C(=O)N2)CO (stereo not drawn) [GRI-2] |  |  | 

The next lines start with the molecule.

Row | Molecule | IC50 (hGWL^FL) [nM] | inhibition of hGWL^FL (result in words) (hGWL^FL) | inhibition at 10 µM (hGWL-KinDom [2]) [%] | Rank in inhibitor screen (hGWL-KinDom [2]) | Km (hGWL-KinDom [1]) [µM] | kcat (hGWL-KinDom [1]) [s⁻¹] | also measured
4 | Nc1ncnc2c1ncn2[C@@H]1O[C@H](COP(=O)(O)OP(=O)(O)OP(=O)(O)O)[C@@H](O)[C@H]1O [ATP] |  |  |  |  | 17.2 ± 2.4 | 10.4 ± 0.48 | 
5 | Clc1ccc(Nc2ccc(-c3cn[nH]c3)cc2)cc1 [GKI-2, N-(4-chorophenyl)-4-(1H-pyrazol-4-yl)aniline] |  | did not demonstrably inhibit |  |  |  |  | 
6 | ENSA: His-tagged recombinant α-endosulfine, GWL substrate (protein, UniProt O43768 2-121, looked up, His tag, His-tagged recombinant α-endosulfine, GWL substrate) Alpha-endosulfine: SQKQEEENPAEETGEEKQDTQEKEGILPERAEEAKLKAKYPSLGQKPGGSDFLMKRLQKGQKYFDSGDYNMAKAKMKNKQLPSAGPDKNLVTGDHIPTPQDLPQRKSSLVTSKLAGGQVE |  |  |  |  | 1.6 ± 0.3 | 0.2 ± 0.01 | 

From publication PMC5342071, “A first generation inhibitor of human Greatwall kinase, enabled by structural and functional characterisation of a minimal kinase domain construct” (Oncotarget, 2016)
